Read-outs that look alike come from different tables or passages of the source.
System: E. coli (strains ATCC BAA 1427, 1428, 1429, 1430 and 1431)
Assay type: cell-based
Design: key: + = Growth; −1 = Inhibition; − = No Growth
Protocol: A microtiter experiment was conducted to evaluate the pathogen killing effect of the following pathogen killing agents: (1) about 100 μL of non-live-bacteria concentrate having dead bacteria alone (obtained from Example 8), (2) a blend of about 50 μL of non-live-bacteria concentrate having dead bacteria (obtained from Example 8), and about 50 μL of approximately 0.1 M lactic acid, or (3) about 100 μL of approximately 0.1 M lactic acid alone when added into Swanson® chicken broth and a source of pathogens.
About 100 μL chicken broth was added into microtiter wells 1 through 12. The pathogen killing agents were added at about 100 μL into wells 1 and 2. About 100 μL from the mixture of pathogen killing agent and chicken broth were then added to well 3 and then repeated thereafter to create the following dilutions, by volume, until well 11: 1:1, 1:2, 1:4, 1:8, 1:16, 1:32, 1:64, 1:128, 1:256, 1:512, and 1:1024. Next, into all microtiter wells, about 50 μL of a solution containing E. coli (strains ATCC BAA 1427, 1428, 1429, 1430 and 1431) were added such that an approximately 1×10^5 cfu/gram concentration of E. coli in each well was obtained. Well 12 served as the positive control by having no pathogen killing agent added. Microtiter plates containing the wells described above were then placed into an incubator at about 35° C. for either about 24 or about 48 hours. After the appropriate incubation time, microtiter plates were removed from the incubator and the color indicator (about 50 μL iodonitrotetrazolium salt reagent) was added into each well and the microtiter plate placed back into the incubator at about 35° C. for about an additional 4 hours to produce the desired color change reaction. Upon removal from the incubator, the color change and pH in each well were recorded.

CC(O)C(=O)O (stereo not shown) [Lactic Acid, lactic acid]
Microtiter well result, E. coli growth (dilution 1:1, After Incubating at 35° C. for 24 hours): −
Microtiter well result, E. coli growth (dilution 1:1, After Incubating at 35° C. for 48 hours): −
Microtiter well result, E. coli growth (dilution 1:2, After Incubating at 35° C. for 24 hours): −
Microtiter well result, E. coli growth (dilution 1:2, After Incubating at 35° C. for 48 hours): −
Microtiter well result, E. coli growth (dilution 1:4, After Incubating at 35° C. for 24 hours): −
Microtiter well result, E. coli growth (dilution 1:4, After Incubating at 35° C. for 48 hours): +
Microtiter well result, E. coli growth (dilution 1:8, After Incubating at 35° C. for 24 hours): −
Microtiter well result, E. coli growth (dilution 1:8, After Incubating at 35° C. for 48 hours): +
Microtiter well result, E. coli growth (dilution 1:16, After Incubating at 35° C. for 24 hours): −
Microtiter well result, E. coli growth (dilution 1:16, After Incubating at 35° C. for 48 hours): +
Microtiter well result, E. coli growth (dilution 1:32, After Incubating at 35° C. for 24 hours): −
Microtiter well result, E. coli growth (dilution 1:32, After Incubating at 35° C. for 48 hours): +
Microtiter well result, E. coli growth (dilution 1:64, After Incubating at 35° C. for 24 hours): −
Microtiter well result, E. coli growth (dilution 1:64, After Incubating at 35° C. for 48 hours): +
Microtiter well result, E. coli growth (dilution 1:128, After Incubating at 35° C. for 24 hours): +
Microtiter well result, E. coli growth (dilution 1:128, After Incubating at 35° C. for 48 hours): −1
Microtiter well result, E. coli growth (dilution 1:256, After Incubating at 35° C. for 24 hours): +
Microtiter well result, E. coli growth (dilution 1:256, After Incubating at 35° C. for 48 hours): +
Microtiter well result, E. coli growth (dilution 1:512, After Incubating at 35° C. for 24 hours): +
Microtiter well result, E. coli growth (dilution 1:512, After Incubating at 35° C. for 48 hours): +
Microtiter well result, E. coli growth (dilution 1:1024, After Incubating at 35° C. for 24 hours): +
Microtiter well result, E. coli growth (dilution 1:1024, After Incubating at 35° C. for 48 hours): +
